In this assay the test system is BDF1 mice, L1210 leukemia sc, survival T/C. Nature of the assay: NCI In Vivo Anticancer Drug Screen. Data for tumor model L1210 Leukemia (subcutaneous) in B6D2F1 (BDF1) mice. To be noted: endpoint: median survival time, higher = longer survival. An outline of the steps:
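Antitumor activity is assessed in mice with transplanted tumors by comparing the treated group (T) with the vehicle control group (C).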

[1] abbreviates: dose: 65.0 mg/kg/injection, schedule: Q01DX Z (sc), vehicle: saline.
Where [2] appears, read: dose: 65.0 mg/kg/injection, schedule: Q01DX Z (sc), vehicle: carboxymethylcellulose (CMC).

The source of these data is PubChem BioAssay AID250 (DTP/NCI, 2004).

Structures are written as SMILES. Values joined by “and” are separate entries in the source; they are usually repeats but may differ in a detail not shown here. Identical values can stand only once. Inconclusive results and toxic doses are left out.

For `O=c1[nH]c(=O)n([C@H]2CCCO2)cc1F`, the T/C by setting is: (dose: 39.0 mg/kg/injection, schedule: Q01DX009 (ip), vehicle: water) 107 % of control; (dose: 39.0 mg/kg/injection, schedule: Q01DX009 (sc), vehicle: water) 100 % of control; (dose: 65.0 mg/kg/injection, schedule: Q01DX009 (ip), vehicle: water) 108 % of control; (dose: 65.0 mg/kg/injection, schedule: Q01DX009 (sc), vehicle: water) 109 % of control; (dose: 108.0 mg/kg/injection, schedule: Q04DX003 (ip), vehicle: water) 119 % of control; (dose: 108.0 mg/kg/injection, schedule: Q04DX003 (sc), vehicle: water) 102 % of control. The T/C runs as follows: (dose: 180.0 mg/kg/injection, schedule: Q01DX009 (ip), vehicle: water) 120 % of control; (dose: 180.0 mg/kg/injection, schedule: Q01DX009 (sc), vehicle: water) 117 % of control; (dose: 180.0 mg/kg/injection, schedule: Q04DX003 (ip), vehicle: water) 120 % of control; (dose: 180.0 mg/kg/injection, schedule: Q04DX003 (sc), vehicle: water) 110 % of control; (dose: 300.0 mg/kg/injection, schedule: Q01DX009 (ip), vehicle: water) 97 % of control; (dose: 300.0 mg/kg/injection, schedule: Q01DX009 (sc), vehicle: water) 100 % of control. The T/C by setting is: (dose: 300.0 mg/kg/injection, schedule: Q04DX003 (ip), vehicle: water) 152 % of control; (dose: 500.0 mg/kg/injection, schedule: Q04DX003 (sc), vehicle: water) 161 % of control; (dose: 833.0 mg/kg/injection, schedule: Q04DX003 (ip), vehicle: water) 168 % of control; (dose: 833.0 mg/kg/injection, schedule: Q04DX003 (sc), vehicle: water) 106 % of control.
Consider `CCCCSc1ncnc2nc[nH]c12`, for which the T/C was 90 % of control (dose: 14.0 mg/kg/injection, schedule: Q01DX Z (sc), vehicle: methylcellulose (MC)); 100 % of control (dose: 23.3 mg/kg/injection, schedule: Q01DX Z (sc), vehicle: methylcellulose (MC)); 104 % of control (dose: 38.9 mg/kg/injection, schedule: Q01DX Z (sc), vehicle: methylcellulose (MC)); 113 % of control (dose: 500.0 mg/kg/injection, schedule: Q01DX Z (sc), vehicle: methylcellulose (MC)); 100 % of control (dose: 833.0 mg/kg/injection, schedule: Q01DX Z (sc), vehicle: methylcellulose (MC)).
For the compound `O=C(O)CS`, the T/C is, setting by setting: (dose: 39.0 mg/kg/injection, schedule: Q01DX Z (sc), vehicle: methylcellulose (MC)) 100 % of control; (dose: 65.0 mg/kg/injection, schedule: Q01DX Z (sc), vehicle: methylcellulose (MC)) 100 % of control; (dose: 108.0 mg/kg/injection, schedule: Q01DX Z (sc), vehicle: methylcellulose (MC)) 100 % of control.
Consider `N[C@@H](Cc1ccc(N(CCCl)CCCl)cc1)C(=O)O`, for which the T/C is 100 % of control (dose: 0.65 mg/kg/injection, schedule: Q01DX Z (sc), vehicle: water); 100 % of control (dose: 1.09 mg/kg/injection, schedule: Q01DX Z (sc), vehicle: water); 95 % of control (dose: 1.81 mg/kg/injection, schedule: Q01DX Z (sc), vehicle: water); 100 % of control (dose: 3.02 mg/kg/injection, schedule: Q01DX Z (sc), vehicle: water); 104 % of control (dose: 5.04 mg/kg/injection, schedule: Q01DX Z (sc), vehicle: water); 100 % of control (dose: 8.4 mg/kg/injection, schedule: Q01DX Z (sc), vehicle: water). Also, the T/C (dose: 14.0 mg/kg/injection, schedule: Q01DX Z (sc), vehicle: saline) is 114 % of control; the T/C (dose: 14.0 mg/kg/injection, schedule: Q01DX Z (sc), vehicle: water) is 109 % of control; the T/C (dose: 23.0 mg/kg/injection, schedule: Q01DX Z (sc), vehicle: saline) is 123 % of control; the T/C (dose: 23.3 mg/kg/injection, schedule: Q01DX Z (sc), vehicle: water) was 109 % of control; the T/C (dose: 38.9 mg/kg/injection, schedule: Q01DX Z (sc), vehicle: water) was 118 % of control; the T/C (dose: 39.0 mg/kg/injection, schedule: Q01DX Z (sc), vehicle: saline) is 104 % of control. In addition, the T/C under setting [1] was 104 % of control.
For the compound `COc1cccc(/C=N/NC(N)=S)c1`, the T/C was 100 % of control (dose: 78.0 mg/kg/injection, schedule: Q01DX Z (sc), vehicle: water); 105 % of control (dose: 130.0 mg/kg/injection, schedule: Q01DX Z (sc), vehicle: water); 100 % of control (dose: 216.0 mg/kg/injection, schedule: Q01DX Z (sc), vehicle: water).
Turning to `Nc1nc(=S)c2ncn(C3OC(COC(=O)c4ccc(Cl)cc4)C(OC(=O)c4ccc(Cl)cc4)C3OC(=O)c3ccc(Cl)cc3)c2[nH]1` (stereo not drawn), the T/C (dose: 12.5 mg/kg/injection, schedule: Q01DX Z (sc), vehicle: carboxymethylcellulose (CMC)) was 100 % of control; the T/C (dose: 25.0 mg/kg/injection, schedule: Q01DX Z (sc), vehicle: carboxymethylcellulose (CMC)) is 106 % of control; the T/C (dose: 50.0 mg/kg/injection, schedule: Q01DX Z (sc), vehicle: carboxymethylcellulose (CMC)) is 100 % of control; the T/C under setting [2] was 100 % of control; the T/C (dose: 100.0 mg/kg/injection, schedule: Q01DX Z (sc), vehicle: carboxymethylcellulose (CMC)) was 112 % of control; the T/C (dose: 108.0 mg/kg/injection, schedule: Q01DX Z (sc), vehicle: carboxymethylcellulose (CMC)) was 122 % of control. Besides, where the note is “dose: 200.0 mg/kg/injection, schedule: Q01DX Z (sc), vehicle: carboxymethylcellulose (CMC)”, the T/C is 150 % of control.
`CCOC(N)=O`: the T/C under setting [1] was 95 % of control; the T/C (dose: 108.0 mg/kg/injection, schedule: Q01DX Z (sc), vehicle: saline) was 100 % of control; the T/C (dose: 180.0 mg/kg/injection, schedule: Q01DX Z (sc), vehicle: saline) was 100 % of control; the T/C (dose: 300.0 mg/kg/injection, schedule: Q01DX Z (sc), vehicle: saline) was 100 % of control; the T/C (dose: 500.0 mg/kg/injection, schedule: Q01DX Z (sc), vehicle: saline) is 90 % of control.
In the case of `O=NN(CCCl)C(=O)N[C@H]1CCCC[C@@H]1Cl`, the T/C runs as follows: (dose: 3.0 mg/kg/injection, schedule: Q01DX Z (sc), vehicle: carboxymethylcellulose (CMC)) 111 % of control; (dose: 5.0 mg/kg/injection, schedule: Q01DX Z (sc), vehicle: carboxymethylcellulose (CMC)) 111 % of control; (dose: 8.4 mg/kg/injection, schedule: Q01DX Z (sc), vehicle: carboxymethylcellulose (CMC)) 211 % of control; (dose: 11.3 mg/kg/injection, schedule: Q01DX Z (sc), vehicle: carboxymethylcellulose (CMC)) 668 % of control; (dose: 14.0 mg/kg/injection, schedule: Q01DX Z (sc), vehicle: carboxymethylcellulose (CMC)) 336 % of control and 472 % of control; (dose: 22.5 mg/kg/injection, schedule: Q01DX Z (sc), vehicle: carboxymethylcellulose (CMC)) 493 % of control. In addition, the T/C is, setting by setting: (dose: 23.0 mg/kg/injection, schedule: Q01DX Z (oral), vehicle: carboxymethylcellulose (CMC)) 326 % of control; (dose: 23.0 mg/kg/injection, schedule: Q01DX Z (sc), vehicle: carboxymethylcellulose (CMC)) 272 % of control and 336 % of control; (dose: 39.0 mg/kg/injection, schedule: Q01DX Z (oral), vehicle: carboxymethylcellulose (CMC)) 189 % of control; (dose: 39.0 mg/kg/injection, schedule: Q01DX Z (sc), vehicle: carboxymethylcellulose (CMC)) 278 % of control; (dose: 45.0 mg/kg/injection, schedule: Q01DX Z (sc), vehicle: carboxymethylcellulose (CMC)) 300 % of control; (dose: 65.0 mg/kg/injection, schedule: Q01DX Z (oral), vehicle: carboxymethylcellulose (CMC)) 163 % of control. Besides, the T/C runs as follows: under setting [2], 194 % of control; (dose: 90.0 mg/kg/injection, schedule: Q01DX Z (sc), vehicle: carboxymethylcellulose (CMC)) 150 % of control; (dose: 180.0 mg/kg/injection, schedule: Q01DX Z (oral), vehicle: carboxymethylcellulose (CMC)) 115 % of control; (dose: 300.0 mg/kg/injection, schedule: Q01DX Z (oral), vehicle: carboxymethylcellulose (CMC)) 105 % of control.
